Source: ChEMBL document CHEMBL6134868, “Novel Aryl Sulfonium Modification on Vancomycin to Tackle MRSA and VRE In Vitro and In Vivo through Dual Enhanced Cell-Wall and Membrane Inhibition” (J Med Chem, 2025)
Each block holds one molecule with its values, some of them ahead of it.

Legend:
[1] = tested on: Staphylococcus aureus; assay: Antibacterial activity against vancomycin-intermediate Staphylococcus aureus Mu50 incubated for 16 to 24 hrs by broth microdilution assay; type: functional; conditions: time 16-24 hrs
[2] = tested on: Staphylococcus aureus; assay: Antibacterial activity against methicillin-resistant Staphylococcus aureus USA300 LAC incubated for 16 to 24 hrs by broth microdilution assay; type: functional; conditions: time 16-24 hrs
[3] = tested on: Enterococcus faecium; assay: Antibacterial activity against vancomycin-resistant Enterococcus faecium Efm-HS-0649 harboring VanA phenotype incubated for 16 to 24 hrs by broth microdilution assay; type: functional; conditions: time 16-24 hrs
[4] = tested on: Enterococcus faecium; assay: Antibacterial activity against vancomycin-resistant Enterococcus faecium Efm-HS-08257 harboring VanM phenotype incubated for 16 to 24 hrs by broth microdilution assay; type: functional; conditions: time 16-24 hrs
[5] = tested on: Enterococcus faecium; assay: Antibacterial activity against vancomycin-resistant Enterococcus faecium Efm-HS-vb01 harboring VanB phenotype incubated for 16 to 24 hrs by broth microdilution assay; type: functional; conditions: time 16-24 hrs
[6] = tested on: Enterococcus faecium; assay: Antibacterial activity against vancomycin-resistant Enterococcus faecium Efm-HS-vb02 harboring VanB phenotype incubated for 16 to 24 hrs by broth microdilution assay; type: functional; conditions: time 16-24 hrs
[7] = tested on: Escherichia coli; assay: Antibacterial activity against Escherichia coli AB1157 incubated for 16 to 24 hrs by broth microdilution assay; type: functional; conditions: time 16-24 hrs
[8] = tested on: Pseudomonas aeruginosa; assay: Antibacterial activity against Pseudomonas aeruginosa PAO1 incubated for 16 to 24 hrs by broth microdilution assay; type: functional; conditions: time 16-24 hrs
[9] = tested on: Klebsiella pneumoniae; assay: Antibacterial activity against Klebsiella pneumoniae KP-1 incubated for 16 to 24 hrs by broth microdilution assay; type: functional; conditions: time 16-24 hrs
[10] = Half life in CD-1 mouse at 5 mg/kg, iv measured for 0.05 to 24 hrs by UPLC analysis; type: ADME, organism-based; conditions: in vivo, time 0.05-24 hrs
[11] = AUClast in CD-1 mouse at 5 mg/kg, iv measured for 0.05 to 24 hrs by UPLC analysis; type: ADME, organism-based; conditions: in vivo, time 0.05-24 hrs
[12] = AUC (infinity) in CD-1 mouse at 5 mg/kg, iv measured for 0.05 to 24 hrs by UPLC analysis; type: ADME, organism-based; conditions: in vivo, time 0.05-24 hrs
[13] = Clearance in CD-1 mouse at 5 mg/kg, iv measured for 0.05 to 24 hrs by UPLC analysis; type: ADME, organism-based; conditions: in vivo, time 0.05-24 hrs
[14] = MRT (infinity) in CD-1 mouse at 5 mg/kg, iv measured for 0.05 to 24 hrs by UPLC analysis; type: ADME, organism-based; conditions: in vivo, time 0.05-24 hrs
[15] = Volume of distribution at steady state in CD-1 mouse at 5 mg/kg, iv measured for 0.05 to 24 hrs by UPLC analysis; type: ADME, organism-based; conditions: in vivo, time 0.05-24 hrs, read-out: Vdss
[16] = tested on: Staphylococcus aureus; assay: Antibacterial activity against methicillin-resistant Staphylococcus aureus USA300 LAC infected in mouse model; type: functional
[17] = tested on: Staphylococcus aureus; assay: Antibacterial activity against methicillin-resistant Staphylococcus aureus […] infected in CD-1 mouse model assessed as animal survival rate at 7 mg/kg, iv measured for 15 days relative to control; type: functional; conditions: 360 h, time 15 day
[18] = tested on: Staphylococcus aureus; assay: Antibacterial activity against vancomycin-intermediate Staphylococcus aureus XN108 infected in CD-1 mouse model assessed as animal survival rate at 7 mg/kg, iv measured for 15 days relative to control; type: functional; conditions: XN108, 360 h, time 15 day
[19] = Protein binding in plasma (unknown origin); type: ADME, cell-free; conditions: read-out: PPB (converted)
[20] = tested on: Acinetobacter baumannii; assay: Antibacterial activity against carbapenem-resistant Acinetobacter baumannii CRAB-1 clinical isolate incubated for 16 to 24 hrs by broth microdilution assay; type: functional; conditions: time 16-24 hrs
[21] = tested on: Acinetobacter baumannii; assay: Antibacterial activity against Acinetobacter baumannii ATCC19606 incubated for 16 to 24 hrs by broth microdilution assay; type: functional; conditions: time 16-24 hrs

Structure (SMILES): CCCCCCCCC(O)C[S+](C)CCCNCc1c(O)cc2c(c1O)-c1cc(ccc1O)[C@H]1NC(=O)[C@@H]3NC(=O)[C@H](CC(N)=O)NC(=O)[C@H](NC(=O)[C@@H](CC(C)C)NC)[C@H](O)c4ccc(c(Cl)c4)Oc4cc3cc(c4O[C@@H]3O[C@H](CO)[C@@H](O)[C@H](O)[C@H]3O[C@H]3C[C@](C)(N)[C@H](O)[C@H](C)O3)Oc3ccc(cc3Cl)[C@@H](O)[C@H](NC1=O)C(=O)N[C@@H]2C(=O)O.O=C([O-])C(F)(F)F (stereo partly drawn)
- MIC [1]: 0.25 mg/L
- MIC [2]: ≤ 0.063 mg/L
- MIC [3]: 8 mg/L
- MIC [4]: 2 mg/L
- MIC [5]: ≤ 0.063 mg/L
- MIC [6]: 1 mg/L
- MIC [7]: 32 mg/L
- MIC [8]: > 128 mg/L
- MIC [9]: > 128 mg/L
- half-life [10]: 1.13 h
- AUC(0-t) [11]: 7.05 µg·h/mL
- AUC(0-inf) [12]: 7.08 µg·h/mL
- clearance [13]: 0.72 L/h/kg
- MRT inf [14]: 0.931 h
- Vd [15]: 0.672 L/kg
- Efficacy [16]: 53.3%
- survival at 7 mg/kg [17]: 86.7%
- survival at 7 mg/kg [18]: 80%

- fraction unbound [19]: 0.07
Structure (SMILES): CN[C@H]1C(=O)N[C@@H]2Cc3ccc(cc3)Oc3cc4cc(c3O[C@@H]3O[C@H](C(=O)O)[C@@H](O)[C@H](O)[C@H]3NC(=O)CCCCCCCCC(C)C)Oc3ccc(cc3Cl)[C@@H](O)[C@@H]3NC(=O)[C@H](NC(=O)[C@@H]4NC(=O)[C@@H](NC2=O)c2cc(cc(O)c2Cl)Oc2cc1ccc2O)c1ccc(O)c(c1)-c1c(OC2OC(CO)C(O)C(O)C2O)cc(O)cc1[C@@H](C(=O)NCCCN(C)C)NC3=O (stereo partly drawn)

Structure (SMILES): CN[C@H](CC(C)C)C(=O)N[C@H]1C(=O)N[C@@H](CC(N)=O)C(=O)N[C@H]2C(=O)N[C@H]3C(=O)N[C@H](C(=O)N[C@H](C(=O)O)c4cc(O)cc(O)c4-c4cc3ccc4O)[C@H](O[C@H]3C[C@](C)(N)[C@@H](O)[C@H](C)O3)c3ccc(c(Cl)c3)Oc3cc2cc(c3O[C@@H]2O[C@H](CO)[C@@H](O)[C@H](O)[C@H]2O[C@H]2C[C@](C)(NCc3ccc(-c4ccc(Cl)cc4)cc3)[C@@H](O)[C@H](C)O2)Oc2ccc(cc2Cl)[C@H]1O [ORITAVANCIN]
- fraction unbound [19]: 0.14

Structure (SMILES): CC(C)C[C@H](C(=O)N[C@H]1C(=O)N[C@@H](CC(N)=O)C(=O)N[C@H]2C(=O)N[C@H]3C(=O)N[C@H](C(=O)N[C@H](C(=O)O)c4cc(O)cc(O)c4-c4cc3ccc4O)[C@H](O)c3ccc(c(Cl)c3)Oc3cc2cc(c3O[C@@H]2O[C@H](CO)[C@@H](O)[C@H](O)[C@H]2O[C@H]2C[C@](C)(N)[C@H](O)[C@H](C)O2)Oc2ccc(cc2Cl)[C@H]1O)N(C)CCC[S+](C)C[C@H](O)COc1ccccc1.O=C([O-])C(F)(F)F (stereo partly drawn)
- MIC [1]: 8 mg/L
- MIC [2]: 2 mg/L
- MIC [3]: > 128 mg/L
- MIC [4]: 128 mg/L
- MIC [5]: 64 mg/L
- MIC [6]: 32 mg/L
- MIC [7]: > 128 mg/L
- MIC [20]: > 128 mg/L
- MIC [21]: > 128 mg/L
- MIC [8]: > 128 mg/L
- MIC [9]: > 128 mg/L

Structure (SMILES): CN[C@H](CC(C)C)C(=O)N[C@H]1C(=O)N[C@@H](CC(N)=O)C(=O)N[C@H]2C(=O)N[C@H]3C(=O)N[C@H](C(=O)N[C@H](C(=O)NCCC[S+](C)C[C@H](O)COc4ccccc4)c4cc(O)cc(O)c4-c4cc3ccc4O)[C@H](O)c3ccc(c(Cl)c3)Oc3cc2cc(c3O[C@@H]2O[C@H](CO)[C@@H](O)[C@H](O)[C@H]2O[C@H]2C[C@](C)(N)[C@H](O)[C@H](C)O2)Oc2ccc(cc2Cl)[C@H]1O.O=C([O-])C(F)(F)F (stereo partly drawn)
- MIC [1]: 1 mg/L
- MIC [2]: 0.25 mg/L
- MIC [3]: 32 mg/L
- MIC [4]: 16 mg/L
- MIC [5]: 16 mg/L
- MIC [6]: 4 mg/L
- MIC [7]: 16 mg/L
- MIC [20]: > 128 mg/L
- MIC [21]: 64 mg/L
- MIC [8]: 128 mg/L
- MIC [9]: > 128 mg/L

Structure (SMILES): CC(C)C[C@H](C(=O)N[C@H]1C(=O)N[C@@H](CC(N)=O)C(=O)N[C@H]2C(=O)N[C@H]3C(=O)N[C@H](C(=O)N[C@H](C(=O)O)c4cc(O)cc(O)c4-c4cc3ccc4O)[C@H](O)c3ccc(c(Cl)c3)Oc3cc2cc(c3O[C@@H]2O[C@H](CO)[C@@H](O)[C@H](O)[C@H]2O[C@H]2C[C@](C)(N)[C@H](O)[C@H](C)O2)Oc2ccc(cc2Cl)[C@H]1O)N(C)CCC[S+](C)CC(O)COc1ccccc1.O=C([O-])C(F)(F)F (stereo partly drawn)
- MIC [1]: 8 mg/L
- MIC [2]: 2 mg/L
- MIC [3]: > 128 mg/L
- MIC [4]: 128 mg/L
- MIC [5]: 64 mg/L
- MIC [6]: 32 mg/L
- MIC [7]: > 128 mg/L
- MIC [20]: > 128 mg/L
- MIC [21]: > 128 mg/L
- MIC [8]: > 128 mg/L
- MIC [9]: > 128 mg/L
